This test deals with T1, human glucagon receptor (Homo sapiens, UniProt P47871).
T1 construct: expressed in transfected cells; host or cells: BHK (baby hamster kidney) cells
In words: Glucagon Binding Assay (III). The note with it: BHK cell membranes, WGA SPA beads, 125I-glucagon; read-out: Glu Bd Assay (III) IC50. In short, it runs like this:
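Non-specific binding was set with 500 nM glucagon in this SPA-type binding assay using WGA beads. The receptor source was a membrane preparation, kept on ice or at 4 °C, from BHK cells transfected with the human receptor. Scintillation counts were taken after 4 hours of shaking and 8–48 hours of settling.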

T1 sequence (P47871 26-477): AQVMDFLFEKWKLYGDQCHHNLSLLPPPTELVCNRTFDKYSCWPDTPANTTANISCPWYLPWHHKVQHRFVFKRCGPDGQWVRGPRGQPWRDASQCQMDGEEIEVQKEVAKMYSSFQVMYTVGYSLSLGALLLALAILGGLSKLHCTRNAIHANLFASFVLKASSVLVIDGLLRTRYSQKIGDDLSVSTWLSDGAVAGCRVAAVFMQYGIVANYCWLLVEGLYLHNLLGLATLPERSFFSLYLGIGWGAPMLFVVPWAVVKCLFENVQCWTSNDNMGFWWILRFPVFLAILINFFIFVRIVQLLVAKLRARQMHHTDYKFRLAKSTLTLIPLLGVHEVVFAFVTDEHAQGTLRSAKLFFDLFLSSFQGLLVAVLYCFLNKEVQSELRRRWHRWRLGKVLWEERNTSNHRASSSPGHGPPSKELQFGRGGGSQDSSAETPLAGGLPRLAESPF

In general, IC50 refers to the concentration that gives 50% inhibition. As for `O=C(O)CCNC(=O)c1ccc(CN(Cc2ccc(Cl)c(Cl)c2)C(=O)Nc2ccc(OC(F)(F)F)cc2)cc1` [Example 432, 3-{4-[1-(3,4-Dichlorobenzyl)-3-(4-trifluoromethoxyphenyl)ureidomethyl]benzoylamino}propionic acid], the 50% inhibitory concentration (IC50) was determined as 1.8 µM.

Consider `CC(C)c1ccc(CN(Cc2ccc(C(=O)NCCC(=O)O)cc2)C(=O)Nc2ccc(OC(F)(F)F)cc2)cc1` [Example 433, 3-{4-[1-(4-Isopropylbenzyl)-3-(4-trifluoromethoxyphenyl)ureidomethyl]benzoylamino}propionic acid], for which the IC50 was found to be 1.25 µM.

Consider `O=C(O)CCNC(=O)c1ccc(CN(C(=O)Nc2ccc(OC(F)(F)F)cc2)c2ccc(N3CCCCC3)cc2)cc1` [Example 434, 3-{4-[1-(4-Piperidin-1-ylphenyl)-3-(4-trifluoromethoxyphenyl)ureidomethyl]benzoylamino}propionic acid], for which the IC50 is 0.126 µM.

Take `CCCCOc1ccc(N(Cc2ccc(C(=O)NCCC(=O)O)cc2)C(=O)Nc2ccc(OC(F)(F)F)cc2)cc1` [Example 435, 3-{4-[1-(4-Butoxyphenyl)-3-(4-trifluoromethoxyphenyl)ureidomethyl]benzoylamino}propionic acid]: the IC50 worked out at 0.374 µM.

As for `O=C(O)CCNC(=O)c1ccc(CN(C(=O)Nc2ccc(OC(F)(F)F)cc2)c2cnc3ccccc3c2)cc1` [Example 436, 3-{4-[1-Quinolin-3-yl-3-(4-trifluoromethoxyphenyl)ureidomethyl]benzoylamino}propionic acid], the IC50 is 1.99 µM.

On to `O=C(O)CCNC(=O)c1ccc(CN(C(=O)Nc2ccc(OC(F)(F)F)cc2)c2ccc(C(F)(F)F)cc2)cc1` [Example 437, 3-{4-[3-(4-Trifluoromethoxyphenyl)-1-(4-trifluoromethylphenyl)ureidomethyl]benzoylamino}propionic acid], for which the half-inhibitory concentration (IC50) was determined as 0.207 µM.

With `O=C(O)CCNC(=O)c1ccc(CN(C(=O)Nc2ccc(OC(F)(F)F)cc2)c2ccc(OC(F)(F)F)cc2)cc1` [Example 438, 3-{4-[1,3-Bis(4-trifluoromethoxyphenyl)ureidomethyl]benzoylamino}propionic acid], the IC50 stood at 0.288 µM.

Consider `CCCc1ccc(N(Cc2ccc(C(=O)NCCC(=O)O)cc2)C(=O)Nc2ccc(OC(F)(F)F)cc2)cc1` [Example 439, 3-{4-[1-(4-Propylphenyl)-3-(4-trifluoromethoxyphenyl)ureidomethyl]benzoylamino}propionic acid], for which the IC50 was found to be 0.184 µM.

With `CCCCc1ccc(N(Cc2ccc(C(=O)NCCC(=O)O)cc2)C(=O)Nc2ccc(OC(F)(F)F)cc2)c(C)c1` [Example 440, 3-{4-[1-(4-Butyl-2-methylphenyl)-3-(4-trifluoromethoxyphenyl)ureidomethyl]benzoylamino}propionic acid], the IC50 stood at 0.509 µM.

Take `CCOc1ccc(N(Cc2ccc(C(=O)NCCC(=O)O)cc2)C(=O)Nc2ccc(OC(F)(F)F)cc2)cc1` [Example 442, 3-{4-[1-(4-Ethoxyphenyl)-3-(4-trifluoromethoxyphenyl)ureidomethyl]benzoylamino}propionic acid]: the 50% inhibitory concentration (IC50) came to 4.1 µM.

Take `O=C(O)CCNC(=O)c1ccc(CN(C(=O)Nc2cccc([N+](=O)[O-])c2)c2ccc(C3CCCCC3)cc2)cc1` [Example 443, 3-{4-[1-(4-Cyclohexylphenyl)-3-(3-nitrophenyl)ureidomethyl]benzoylamino}propionic acid]: the half-maximal inhibitory concentration (IC50) was determined as 0.167 µM.

Regarding `CS(=O)(=O)c1cccc(NC(=O)N(Cc2ccc(C(=O)Nc3nn[nH]n3)cc2)c2ccc(C3CCCCC3)cc2)c1` [Example 444, 4-[1-(4-Cyclohexylphenyl)-3-(3-methylsulfonylphenyl)ureidomethyl]-N-(2H-tetrazol-5-yl)benzamide], the IC50 came out at 0.042 µM.

In the case of `CC(C)(C)C1CCC(N(Cc2ccc(C(=O)Nc3nn[nH]n3)cc2)C(=O)Nc2cccc(S(C)(=O)=O)c2)CC1` (stereo not shown) [Example 445, 4-[1-(4-tert-Butylcyclohexyl)-3-(3-methylsulfonylphenyl)ureidomethyl]-N-(2H-tetrazol-5-yl)benzamide], the half-maximal inhibitory concentration (IC50) amounted to 0.204 µM.

For the origin of these results see patent US6875760B2 (Novo Nordisk A/S, priority 1999, dated 2005).
